The target in one data set is D(2) dopamine receptor (Rattus norvegicus, UniProt P61169). Description: Compound was evaluated for its affinity (pKi) to inhibit [3H]spiperone binding to the dopamine receptor D2.
A further data set has as its target D(1A) dopamine receptor (Rattus norvegicus, UniProt P18901). Description: Compound was evaluated for its affinity (pKi) to inhibit [3H]SCH-23390 binding to the dopamine receptor D1.
The species named for data set [1] is Rattus norvegicus. Nature of the data set: Compound was evaluated for the pA2 values against Dopamine (DA)-induced contraction of isolated rat vas deferens. In kind it is functional, organism-based. The conditions noted are these: read-out: pA2 (converted).
The species entered for a further data set is Mus musculus. Description: Compound was evaluated for the effective dose that causes lethality in aggregated mice (group toxicity antagonism). It is filed as organism-based. The following applies: in vivo.
The species entered for data set [2] is Rattus norvegicus. Description: Compound was evaluated for the pA2 values against Norepinephrine (NE)-induced contraction of isolated rat vas deferens. In kind it is functional. The conditions noted are these: read-out: pA2 (converted).

Sequence of D(1A) dopamine receptor (P18901 whole entry): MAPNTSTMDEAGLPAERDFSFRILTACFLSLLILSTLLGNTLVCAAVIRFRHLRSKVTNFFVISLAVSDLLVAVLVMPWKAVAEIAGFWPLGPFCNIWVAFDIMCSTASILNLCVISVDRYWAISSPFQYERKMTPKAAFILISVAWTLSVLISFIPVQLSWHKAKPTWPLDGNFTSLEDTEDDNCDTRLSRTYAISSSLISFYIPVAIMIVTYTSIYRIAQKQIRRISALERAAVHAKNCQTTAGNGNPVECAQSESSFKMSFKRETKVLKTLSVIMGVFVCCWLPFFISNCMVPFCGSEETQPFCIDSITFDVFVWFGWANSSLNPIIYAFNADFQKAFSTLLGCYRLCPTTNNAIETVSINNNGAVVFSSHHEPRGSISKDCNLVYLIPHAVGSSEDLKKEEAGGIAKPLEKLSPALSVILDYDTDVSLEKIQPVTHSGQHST
Sequence of D(2) dopamine receptor (P61169 whole entry): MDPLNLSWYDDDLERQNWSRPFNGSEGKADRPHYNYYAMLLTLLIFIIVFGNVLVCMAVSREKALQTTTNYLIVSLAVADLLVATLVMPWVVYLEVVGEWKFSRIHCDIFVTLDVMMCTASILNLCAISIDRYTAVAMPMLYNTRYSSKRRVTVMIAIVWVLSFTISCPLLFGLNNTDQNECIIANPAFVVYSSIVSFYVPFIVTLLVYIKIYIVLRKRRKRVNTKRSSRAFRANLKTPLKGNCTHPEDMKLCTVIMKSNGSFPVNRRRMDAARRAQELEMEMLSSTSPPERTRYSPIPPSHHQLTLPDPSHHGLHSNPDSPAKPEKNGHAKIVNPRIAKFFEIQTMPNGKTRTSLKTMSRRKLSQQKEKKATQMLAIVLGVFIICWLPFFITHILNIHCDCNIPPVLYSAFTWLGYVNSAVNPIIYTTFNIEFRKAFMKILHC

For orientation: Ki means the equilibrium dissociation constant of an inhibitor or competing ligand from its target. Read a low Ki as a stronger hold on the target. Consider `O=C1CC(CN2CCC(O)(c3ccccc3)CC2)Cc2ccccc21` (centres undefined), for which the values for the Ki at D(2) dopamine receptor and on D(1A) dopamine receptor were 74.1 nM and 741 nM, respectively.

The term ED50 denotes the midpoint of the dose-response relation. `O=C(CCCN1CCC(O)(c2ccc(Cl)cc2)CC1)c1ccc(F)cc1` [HALOPERIDOL]: the Kb in the data set listed under Rattus norvegicus [1] was 39.8 nM; in the data set listed under Rattus norvegicus [2], 102 nM. Besides, the median effective dose (ED50) in the data set listed under Mus musculus is 0.02 mg/kg.

As for `O=C1CC(CN2CCC(C(=O)c3ccc(F)cc3)CC2)Cc2ccccc21` (centres undefined), the Kb in the data set listed under Rattus norvegicus [1] is 35.5 nM; in the data set listed under Rattus norvegicus [2], 83.2 nM. The molecule also gave an inhibitory constant (Ki) at D(1A) dopamine receptor of 324 nM. The median effective dose (ED50) in the data set filed under Mus musculus is 0.055 mg/kg.

`COc1ccccc1N1CCN(CC2CC(=O)c3ccccc3C2)CC1` (centres undefined): the Kb in the data set listed under Rattus norvegicus [1] is 66.1 nM; in the data set filed under Rattus norvegicus [2], 174 nM. This molecule also had an inhibition constant (Ki) on D(1A) dopamine receptor of 1350 nM. This molecule also yielded an ED50 in the data set filed under Mus musculus of 0.349 mg/kg.

Consider `O=C(CCCN1CCN(CC2CC(=O)c3ccccc3C2)CC1)c1ccc(F)cc1` (centres undefined), for which the Kb is 53.7 nM in the data set listed under Rattus norvegicus [1] and 178 nM in the data set filed under Rattus norvegicus [2]. This molecule also showed a Ki on D(1A) dopamine receptor of 380 nM.

`O=C(CCCN1CCN(CC2CC(=O)c3ccc(F)cc3C2)CC1)c1ccc(F)cc1` (centres undefined): the Ki is 77.6 nM at D(2) dopamine receptor and 912 nM at D(1A) dopamine receptor. In the data set listed under Mus musculus, this molecule had a 50% effective dose (ED50) of 0.053 mg/kg.

The values are drawn from ChEMBL document CHEMBL1125591, “Synthesis and antidopaminergic activity of some 3-(aminomethyl)tetralones as analogues of butyrophenone” (J Med Chem, 1991).
